Like-named read-outs stand apart in the source and are kept apart here.
Legend:
[1] = tested on: STING / IRF pathway in THP1-Dual cells; assay: STING THP1 Reporter Assay, IRF pathway (secreted Lucia luciferase, QUANTI-Luc); assay type: cell-based; details: 10% human plasma, 100% activation = 100 μM cGAMP, luciferase readout, read-out: THP1 Reporter Assays EC50 IRF3
From the text: (§1) THP1-Dual™ cells were derived from the human THP-1 monocyte cell line by stable integration of two inducible reporter constructs. To this end, THP1-Dual™ cells allow the simultaneous study of the […], by monitoring the activity of SEAP, and the IRF pathway by assessing the activity of a secreted luciferase (Lucia). Both reporter proteins are readily measurable in the cell culture supernatant when using QUANTI-Blue™, a SEAP detection reagent, and QUANTI-Luc™, a luciferase detection reagent.
(§2) THP1-Dual™ cells induce the activation of NF-κB in response to STING agonists. They also trigger the IRF pathway upon stimulation with STING agonists, such as cGAMP. Here, the THP-1-Dual cells were used to assess STING binders for function on the cellular level.
(§3) Serial dilutions of compounds in DMSO were added to low volume 384 well plates at 100 nl/well using an ECHO acoustic dispenser (Labcyte, model 550) to achieve final starting concentration of 100 μM in cell suspension. THP-1 Dual™ STING reporter cells (Invivogen, Dual cells cat #THPD-nfis) were added to the plates with compounds at 15,000 cells in 10 μL per well in RPMI media (Gibco, cat #11875) containing 10% human plasma in a low volume 384-well black wall clear bottom tissue culture plate (Corning, cat #3542) for SEAP assay and low volume solid white plate (Corning, cat #3826) for luciferase assay. One column of the plate was reserved for treatment with cGAMP at 100 μM for 100% activation calculation and one column for no treatment (DMSO only) for baseline activation. Plates were then incubated in 37 OC incubator at 5% CO2 for 20 hours.
(§4) In the SEAP assay, […] 2× QuantiBlue (Invivogen, cat #Rep-qb2) is added to 384 well black plates seeded with THP1 cells and incubated at 37° C. for 2 hours. Plates were read on the Envision (Perkin Elmer) at 620 nm wavelength (OD620). In the luciferase assay, 5 μl of Quantiluc (Invivogen, Rep-qlc2) is added to white 384 well plates seeded with THP1 cells and read at 5 minutes on the Envision (Perkin Elmer) using a luminescence protocol (RLU). For both cell lines, 100% activation was determined by value (RLU) of THP-1 Dual STING cells stimulated with 100 μM cGAMP (Invivogen, cat #TLRL-NACGA23-5).

[2] = tested on: STING / NF-κB pathway in THP1-Dual cells; assay: STING THP1 Reporter Assay, NF-κB pathway (SEAP, QUANTI-Blue); assay type: cell-based; details: 10% human plasma, 100% activation = 100 μM cGAMP, SEAP readout, read-out: THP1 Reporter Assays EC50 NFkB
From the text: as §1, §2, §3, §4

[3] = target: T1, STING WT (His-TVMV-S-hSTING(155-341)-H232R) (Homo sapiens, UniProt Q86WV6, H232R); assay: STING HTRF binding assay (time resolved FRET competition), STING WT; details: 20 nM His-tagged STING WT cytoplasmic domain, 200 nM fluorescein-labeled cGAMP analog probe, one hour; read-out: HTRF Binding Assays IC50 WT
T1 construct: STING WT: His-TVMV-S-hSTING(155-341)-H232R
Description: (§5) A time resolved FRET-based competition binding assay was used to assess test article binding to STING WT and STING AQ. His-tagged STING cytoplasmic domain (WT or AQ) at a concentration of 20 nM was incubated with 2.5 nM Tb-labeled anti-His antibody, test compound, and fluorescein-labeled cGAMP analog probe (BioLog cat. no. C195) at a concentration of 200 nM (STING WT) or 40 nM (STING AQ) in PBS containing 0.005% Tween-20 and 0.1% BSA for one hour. Fluorescence at 495 nm and 520 nm was measured using an EnVision microplate reader to quantify FRET between Tb-labeled anti-His antibody and fluorescein-labeled probe. Background was defined as the signal obtained in the absence of STING protein, and background subtracted FRET ratios were normalized to the maximum signal obtained in the absence of test compound. These values were converted to a percent inhibition. Percent inhibition was determined for test compounds at 11 concentrations. The IC50, defined as the concentration of competing test compound needed to reduce specific binding of the probe by 50%, was calculated using the 4 parameter logistic equation to fit the data
STING WT: His-TVMV-S-hSTING(155-341)-H232R • […] […] […] […] LRQEEKEEV (SEQ ID NO:1)

[4] = target: T2, STING AQ (His-TVMV-S-hSTING(155-341)-G230A-R293Q) (Homo sapiens, UniProt Q86WV6, G230A/H232R/R293Q); assay: STING HTRF binding assay (time resolved FRET competition), STING AQ; details: 20 nM His-tagged STING AQ cytoplasmic domain, 40 nM fluorescein-labeled cGAMP analog probe, one hour; read-out: HTRF Binding Assays IC50 AQ
T2 construct: STING AQ: His-TVMV-S-hSTING(155-341)-G230A-R293Q
Description: as §5
STING AQ: His-TVMV-S-hSTING(155-341)-G230A-R293Q • […] […] […] […] LRQEEKEEV (SEQ ID NO:2)

T2 sequence (Q86WV6 with tags, fused parts or gaps G230A/H232R/R293Q): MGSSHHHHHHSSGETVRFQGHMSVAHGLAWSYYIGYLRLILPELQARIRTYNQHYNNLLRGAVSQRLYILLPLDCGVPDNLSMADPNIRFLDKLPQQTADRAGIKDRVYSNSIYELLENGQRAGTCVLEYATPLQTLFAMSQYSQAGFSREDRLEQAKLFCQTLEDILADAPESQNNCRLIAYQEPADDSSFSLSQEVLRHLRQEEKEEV
T1 sequence (Q86WV6 with tags, fused parts or gaps H232R): as the sequence (Q86WV6 with tags, fused parts or gaps G230A/H232R/R293Q) above, with A99G, Q162R counted along it

Row | Compound | EC50 ([1]; 20 hours) | EC50 ([2]; 20 hours) | IC50 [3] | IC50 [4] | EC50 ([1]; Homo sapiens, THP1-Dual, 20 h) | EC50 ([2]; Homo sapiens, THP1-Dual, 20 h)
1 | NC(=O)c1cccc2c1nnn2[C@@H]1O[C@@H]2COP(=O)(S)O[C@H]3[C@@H](F)[C@H](n4cnc5c(N)ncnc54)O[C@@H]3COP(=O)(S)O[C@@H]1[C@@H]2O (single isomer, unassigned) [Example 8-3] | 10000 nM | 15300 nM | 140 nM | 20 nM | – | –
2 | NC(=O)c1cccc2c1nnn2[C@@H]1O[C@@H]2COP(=O)(S)O[C@H]3[C@@H](F)[C@H](n4cnc5c(N)ncnc54)O[C@@H]3COP(=O)(S)O[C@@H]1[C@@H]2F (single isomer, unassigned) [Example 10-3] | 5100 nM | 8900 nM | 50 nM | 5 nM | – | –
3 | Nc1ncnc2c1ncn2[C@@H]1O[C@@H]2COP(=O)(S)O[C@@H]3[C@H](O)[C@@H](COP(=O)(S)O[C@H]2[C@H]1F)O[C@H]3n1nnc2c([N+](=O)[O-])cccc21 (single isomer, unassigned) [Example 7-1] | 600 nM | 2100 nM | 10 nM | 10 nM | – | –
4 | O=[N+]([O-])c1cccc2c1nnn2[C@@H]1O[C@@H]2COP(=O)(S)O[C@H]3[C@@H](F)[C@H](n4cnc5c4ncn4ccnc54)O[C@@H]3COP(=O)(S)O[C@@H]1[C@@H]2O (single isomer, unassigned) [Example 15-1] | 1000 nM | 2100 nM | 20 nM | 10 nM | – | –
5 | NC(=O)c1cccc2c1nnn2[C@@H]1O[C@@H]2COP(=O)(S)O[C@H]3[C@@H](F)[C@H](n4cnc5c(N)ncnc54)O[C@@H]3COP(=O)(S)O[C@@H]1[C@@H]2O (single isomer, unassigned) [Example 8-2] | 5200 nM | 7600 nM | 10 nM | 10 nM | – | –
6 | NC(=O)c1cccc2c1nnn2[C@@H]1O[C@@H]2COP(=O)(S)O[C@H]3[C@@H](F)[C@H](n4cnc5c(N)ncnc54)O[C@@H]3COP(=O)(S)O[C@@H]1[C@@H]2F (single isomer, unassigned) [Example 10-1] | 1330 nM | 2220 nM | 20 nM | 5 nM | – | –
7 | NC(=O)c1cccc2c1nnn2[C@@H]1O[C@@H]2COP(=O)(O)O[C@H]3[C@@H](F)[C@H](n4cnc5c(N)ncnc54)O[C@@H]3COP(=O)(S)O[C@@H]1[C@@H]2O (single isomer, unassigned) [Example 4-1] | 4500 nM | 12000 nM | 60 nM | 10 nM | – | –
8 | Nc1ncnc2c1ncn2[C@@H]1O[C@@H]2COP(=O)(S)O[C@@H]3[C@H](O)[C@@H](COP(=O)(S)O[C@H]2[C@H]1F)O[C@H]3n1nnc2c([N+](=O)[O-])cccc21 (single isomer, unassigned) [Example 7-4] | 5500 nM | 8000 nM | 50 nM | 10 nM | – | –
9 | Nc1ncnc2c1ncn2[C@@H]1O[C@@H]2COP(=O)(S)O[C@@H]3[C@H](O)[C@@H](COP(=O)(S)O[C@H]2[C@H]1F)O[C@H]3n1nnc2c([N+](=O)[O-])cccc21 (single isomer, unassigned) [Example 7-2] | 28000 nM | 64000 nM | 240 nM | 40 nM | – | –
10 | O=[N+]([O-])c1cccc2c1nnn2[C@@H]1O[C@@H]2COP(=O)(S)O[C@H]3[C@@H](F)[C@H](n4cnc5c4ncn4ccnc54)O[C@@H]3COP(=O)(S)O[C@@H]1[C@@H]2F (stereo partly drawn) [Example 14-1, (1S,6R,8R,9R,10R,15R,17R,18R)-9,18-difluoro-8-{3H-imidazo[2,1-f]purin-3-yl}-17-(4-nitro-1H-1,2,3-benzotriazol-1-yl)-3,12-disulfanyl-2,4,7,11,13,16-hexaoxa-3λ^5,12λ^5-diphosphatricyclo[13.2.1.0^6,10]octadecane-3,12-dione] | – | – | 50 nM | 10 nM | 3300 nM | 11700 nM
11 | NC(=O)c1cccc2c1nnn2[C@@H]1O[C@@H]2COP(=O)(S)O[C@H]3[C@@H](F)[C@H](n4cnc5c(N)ncnc54)O[C@@H]3COP(=O)(S)O[C@@H]1[C@@H]2F (single isomer, unassigned) [Example 10-2] | 46500 nM | 76200 nM | 100 nM | 10 nM | – | –
12 | Nc1ncnc2c1ncn2[C@@H]1O[C@@H]2COP(=O)(S)O[C@@H]3[C@H](F)[C@@H](COP(=O)(S)O[C@H]2[C@H]1F)O[C@H]3n1nnc2c(N)cccc21 (single isomer, unassigned) [Example 13-1] | 1200 nM | 4900 nM | 70 nM | 10 nM | – | –
13 | NC(=O)c1cccc2c1nnn2[C@@H]1O[C@@H]2COP(=O)(S)O[C@H]3[C@@H](F)[C@H](n4cnc5c(N)ncnc54)O[C@@H]3COP(=O)(S)O[C@@H]1[C@@H]2F (single isomer, unassigned) [Example 10-4] | 300 nM | 900 nM | 10 nM | 2 nM | – | –
14 | Nc1ncnc2c1ncn2[C@@H]1O[C@@H]2COP(=O)(S)O[C@@H]3[C@H](O)[C@@H](COP(=O)(S)O[C@H]2[C@H]1F)O[C@H]3n1nnc2c(C(F)(F)F)cccc21 (single isomer, unassigned) [Example 9-4] | > 100000 nM | > 100000 nM | 12500 nM | 600 nM | – | –
15 | NC(=O)c1cccc2c1nnn2[C@@H]1O[C@@H]2COP(=O)(O)O[C@H]3[C@@H](F)[C@H](n4cnc5c(N)ncnc54)O[C@@H]3COP(=O)(O)O[C@@H]1[C@@H]2O [Example 1, 1-[(1R,6R,8R,9R,10R,15R,17R,18R)-8-(6-amino-9H-purin-9-yl)-9-fluoro-3,12,18-trihydroxy-3,12-dioxo-2,4,7,11,13,16-hexaoxa-3λ^5,12λ^5-diphosphatricyclo[13.2.1.0^6,10]octadecan-17-yl]-1H-1,2,3-benzotriazole-4-carboxamide] | – | – | 10 nM | 3 nM | 1500 nM | 3200 nM
16 | Nc1ncnc2c1ncn2[C@@H]1O[C@@H]2COP(=O)(S)O[C@@H]3[C@H](F)[C@@H](COP(=O)(S)O[C@H]2[C@H]1F)O[C@H]3n1nnc2c(N)cccc21 (single isomer, unassigned) [Example 12-1] | – | – | 80 nM | 10 nM | 1600 nM | 5400 nM
17 | NC(=O)c1cccc2c1nnn2[C@@H]1O[C@@H]2COP(=O)(O)O[C@H]3[C@@H](F)[C@H](n4cnc5c4ncn4ccnc54)O[C@@H]3COP(=O)(S)O[C@@H]1[C@@H]2F (single isomer, unassigned) [Example 16-1] | 2200 nM | 7700 nM | 90 nM | 10 nM | – | –
